The results in this text go back to ChEMBL document CHEMBL5543072, “Discovery of a novel lead characterized by a stilbene-extended scaffold against sepsis as soluble epoxide hydrolase inhibitors” (Eur J Med Chem, 2024).

Activity calls are given as the source filed them. No cut-off for these calls is given here.

In data set [1] the target is T1, Bifunctional epoxide hydrolase 2 (Mus musculus, UniProt P34914).
T1 sequence (P34914 whole entry): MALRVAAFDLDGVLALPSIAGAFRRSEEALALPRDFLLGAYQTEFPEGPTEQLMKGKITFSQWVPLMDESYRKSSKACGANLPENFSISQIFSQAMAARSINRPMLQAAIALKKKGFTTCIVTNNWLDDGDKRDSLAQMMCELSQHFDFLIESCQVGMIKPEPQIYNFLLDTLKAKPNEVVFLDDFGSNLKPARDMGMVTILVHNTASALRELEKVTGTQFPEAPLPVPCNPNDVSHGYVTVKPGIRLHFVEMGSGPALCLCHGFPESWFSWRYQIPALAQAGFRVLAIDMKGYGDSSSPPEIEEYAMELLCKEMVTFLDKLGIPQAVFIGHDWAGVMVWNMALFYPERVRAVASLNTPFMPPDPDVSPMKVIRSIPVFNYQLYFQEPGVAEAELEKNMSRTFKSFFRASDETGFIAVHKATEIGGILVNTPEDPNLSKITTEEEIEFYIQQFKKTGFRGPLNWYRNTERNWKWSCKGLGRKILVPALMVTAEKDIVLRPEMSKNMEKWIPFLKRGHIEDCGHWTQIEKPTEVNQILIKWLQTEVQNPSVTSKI

For data set [2], the system named is Mus musculus. Kind of data set: Protection against LPS-induced sepsis in C57BL/6J mouse model assessed as survival rate at 5 mg/kg, iv measured after 48 hrs relative to control. The data set is classed as functional.
The subject of data set [3] is Mus musculus. In words: Protection against LPS-induced sepsis in C57BL/6J mouse model assessed as survival rate at 5 mg/kg, iv measured after 72 hrs relative to control. The data set is classed as functional.
The subject of data set [4] is Mus musculus. In words: Protection against LPS-induced sepsis in C57BL/6J mouse model assessed as survival rate at 5 mg/kg, iv measured after 24 hrs relative to control. The data set is classed as functional.
For data set [5], the system named is Mus musculus. Kind of data set: Protection against LPS-induced sepsis in C57BL/6J mouse model assessed as […] at 5 mg/kg, iv measured after 32 hrs relative to control. It is filed as functional.
The nature of data set [6]: Cytotoxicity in HEK293T cells assessed as cell viability at 5 uM incubated for 48 hrs by CCK8 assay relative to control. It is filed as toxicity, cell-based, HEK-293T. As to conditions: human, read-out: Activity. In general terms: Tetrazolium assays rely on reduction of a dye to a coloured formazan, in cell work by metabolically active cells.
Data set [7] deals with T2, Bifunctional epoxide hydrolase 2 (Homo sapiens, UniProt P34913).
T2 sequence (P34913 whole entry): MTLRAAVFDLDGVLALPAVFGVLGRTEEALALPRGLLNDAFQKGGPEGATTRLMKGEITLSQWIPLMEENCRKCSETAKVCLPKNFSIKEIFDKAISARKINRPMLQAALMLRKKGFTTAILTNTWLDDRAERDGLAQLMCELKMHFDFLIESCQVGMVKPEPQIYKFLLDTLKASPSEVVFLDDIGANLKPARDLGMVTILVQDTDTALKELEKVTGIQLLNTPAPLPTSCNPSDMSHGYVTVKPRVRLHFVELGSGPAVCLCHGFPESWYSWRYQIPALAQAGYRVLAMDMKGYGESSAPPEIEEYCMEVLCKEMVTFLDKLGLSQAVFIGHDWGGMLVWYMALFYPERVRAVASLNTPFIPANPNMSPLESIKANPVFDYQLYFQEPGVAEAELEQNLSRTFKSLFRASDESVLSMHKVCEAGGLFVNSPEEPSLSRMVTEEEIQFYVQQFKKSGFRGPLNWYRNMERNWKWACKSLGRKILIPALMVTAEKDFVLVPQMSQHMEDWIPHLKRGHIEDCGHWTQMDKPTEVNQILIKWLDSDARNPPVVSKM

A short description of data set [8]: Cytotoxicity against human HepG2 cells assessed as cell viability at 50 uM incubated for 48 hrs by CCK8 assay relative to control. It is filed as toxicity, cell-based. Particulars: read-out: Activity.
Data set [9] can be described thus: Toxicity in LPS-induced sepsis C57BL/6J mouse model assessed as effect on survival rate at 0.5 to 5 mg/kg, ip measured upto 72 hrs. It is filed as organism-based. As to conditions: in vivo, dose 0.5-5 mg/kg.
Data set [10] in a line: Cytotoxicity in HEK293T cells assessed as cell viability at 50 uM incubated for 48 hrs by CCK8 assay relative to control. It is filed as toxicity, cell-based, HEK-293T. As to conditions: human, read-out: Activity.
The nature of data set [11]: Cytotoxicity against human HepG2 cells assessed as cell viability at 5 uM incubated for 48 hrs by CCK8 assay relative to control. The data set is classed as toxicity, cell-based. Particulars: read-out: Activity.
Data set [12] relates to Mus musculus. In words: Protection against LPS-induced sepsis in C57BL/6J mouse model assessed as delay in death time at 0.5 to 5 mg/kg, ip measured upto 72 hrs. The data set is classed as functional, organism-based. As to conditions: dose 0.5-5 mg/kg.

By IC50 is commonly meant the point on the concentration scale where inhibition reaches its midpoint. Low readings indicate inhibition by little substance, high ones a need for much substance. In the case of `CC(C)CNC(=O)Nc1ccc(/C=C/c2ccc3c(c2)OCO3)cc1F`, the 50% inhibitory concentration (IC50) in [1] was found to be 1.24 nM. As for `CC(C)CCNC(=O)Nc1cccc(/C=C/c2ccc3c(c2)OCO3)c1`, inhibition in [1] was half-maximal at 23.3 nM (IC50). On to `COc1cc(/C=C/c2ccc(CNC(=O)NCC(C)C)cc2)cc(OC)c1`, for which, in [1], the half-maximal inhibitory concentration (IC50) was found to be 14.3 nM. The compound `Cc1cc(/C=C/c2ccc3c(c2)OCO3)ccc1NC(=O)NCC(C)C` gave a half-inhibitory concentration (IC50) in [1] of 3.21 nM. This IC50 is about 4.5-fold lower than that of the compound before. The compound `CN1CCN(C(=O)Nc2ccc(/C=C/c3ccc4c(c3)OCO4)cc2)CC1` had a 50% inhibitory concentration (IC50) in [1] of 2740 nM.

The compound `CCC(=O)N1CCN(C(=O)Nc2ccc(/C=C/c3ccc4c(c3)OCO4)cc2)CC1` returned a 50% inhibitory concentration (IC50) in [1] of 200 nM.

Turning to `COc1cc(/C=C/c2cccc(NC(=O)NCC(C)C)c2)cc(OC)c1`, the IC50 in data set [1] stood at 44.5 nM. In [1], `CC(C)CNC(=O)Nc1cccc(/C=C/c2ccc3c(c2)OCO3)c1` displayed an IC50 of 2.03 nM. `O=C(Cc1ccncc1)Nc1cccc(/C=C/c2ccc(NC(=O)NCC3CCOCC3)cc2)c1`: the midpoint of inhibition in data set [1], the IC50, lay at 1.42 nM. This IC50 and that of the compound before are within 1.5-fold of each other.

In data set [1], `COc1ccc(/C=C/c2ccc(NC(=O)NCC(C)C)cc2)cc1O` showed an IC50 of 4.76 nM. Same read-out and setting: for `O=C(Cc1ccccn1)Nc1ccc(/C=C/c2ccc(NC(=O)NCC3CCOCC3)cc2)cc1` the value was 3.45 nM; for `COc1cc(/C=C/c2cccc(NC(=O)NCC3CCOCC3)c2)cc(OC)c1`, 91.3 nM; for `O=C(Cn1c2ccccc2c2ccccc21)Nc1cccc(/C=C/c2ccc(NC(=O)NCC3CCOCC3)cc2)c1`, 3.31 nM. On the same count and under the same terms, for `CC(C)CCNC(=O)Nc1ccc(/C=C/c2ccc3c(c2)OCO3)cc1` the value was 1.22 nM. `CC(C)CNC(=O)Nc1ccc(/C=C/c2ccc3c(c2)OCO3)cc1`: in data set [1], the IC50 stood at 2.68 nM.

Compound `COc1cc(/C=C/c2ccc(NC(=O)NCC(C)C)cc2)cc(OC)c1` displayed an IC50 in data set [1] of 1.92 nM. On the same count and under the same terms, for `O=C(Cc1ccccn1)Nc1cccc(NC(=O)c2ccc(NC(=O)NCC3CCOCC3)cc2)c1` the value was 67.4 nM. `CCC(=O)N1CCC(NC(=O)Nc2ccc(/C=C/c3ccc4c(c3)OCO4)cc2)CC1` showed an IC50 in data set [1] of 8.02 nM. As for `CC[C@H](C)C(=O)N1CCC(NC(=O)Nc2ccc(OC(F)(F)F)c(F)c2)CC1`, the survival at 5 mg/kg was 0% with Mus musculus [2], 0% with Mus musculus [3] and 30% in the data set on Mus musculus [4].

`O=C(Cc1ccc2ncccc2c1)Nc1cccc(/C=C/c2ccc(NC(=O)NCC3CCOCC3)cc2)c1`: the survival at 5 mg/kg in the data set on Mus musculus [2] was 0%; with Mus musculus [3] it was 0%; with Mus musculus [4], 80%. Also, the Activity with Mus musculus [5] is on record as 0%. The compound also displayed a concentration for half-maximal inhibition (IC50) in data set [1] of 1.4 nM. The compound `O=C(NCC1CCOCC1)Nc1ccc(/C=C/c2cccc(C(=O)NCc3ccccn3)c2)cc1` registered a concentration for half-maximal inhibition (IC50) in [1] of 5.78 nM. On the same count and under the same terms, for `O=C(NCC1CCOCC1)Nc1ccc(/C=C/c2cccc(NC(=O)c3ccccn3)c2)cc1` the value was 8.42 nM. Compound `CC(C)CNC(=O)Nc1ccc(/C=C/c2ccc3c(c2)OCO3)c(F)c1` yielded a 50% inhibitory concentration (IC50) in [1] of 6.72 nM.

As to `O=C(Cc1cccnc1)Nc1cccc(/C=C/c2ccc(NC(=O)NCC3CCOCC3)cc2)c1`, the survival at 5 mg/kg is 20% with Mus musculus [2], 0% with Mus musculus [3] and 70% with Mus musculus [4]. In addition, the Activity with Mus musculus [5] was 0%. In data set [1], this compound yielded a half-inhibitory concentration (IC50) of 2.03 nM.

The compound `O=C(Cn1ccc2ccccc21)Nc1cccc(/C=C/c2ccc(NC(=O)NCC3CCOCC3)cc2)c1` showed a half-maximal inhibitory concentration (IC50) in [1] of 1.26 nM. Still for that read-out and setting: the same measure for `CC(C)CNC(=O)Nc1ccc(/C=C/c2ccc3c(c2)OCO3)c(Cl)c1`: 4.59 nM. Take `O=C(NCC1CCOCC1)Nc1ccc(/C=C/c2ccc3c(c2)OCO3)cc1`: the results for the viability at 48 h, 5 µM in [6] and in data set [11] were 98.2% and 82.8%, respectively. For the same compound, the IC50 in data set [7] came out at 4.78 nM; in data set [1] it was 1.63 nM. Also, the viability at 48 h, 50 µM in [8] came to 69%; in [10] it was 84.3%. The Activity entry in [9] is listed as “Non-Toxic”. The outcome in the data set with Mus musculus [12] was Active. The compound `COc1cc(/C=C/c2ccc(NC(=O)N(C)C)cc2)cc(OC)c1` displayed an IC50 in data set [1] of 5200 nM.

In the case of `O=C(NCC1CCOCC1)Nc1cccc(/C=C/c2ccc3c(c2)OCO3)c1`, in data set [1], the IC50 is 2.74 nM. `CN1CCC(NC(=O)Nc2ccc(/C=C/c3ccc4c(c3)OCO4)cc2)CC1` yielded a concentration for half-maximal inhibition (IC50) in data set [1] of 2600 nM. Regarding `COc1cc(/C=C/c2ccc(NC(=O)NCC3CCOCC3)cc2)cc(OC)c1`, inhibition in data set [1] was half-maximal at 2.53 nM (IC50). For `C[C@@H]1C[C@H]2[C@@H]3CCC4=CC(=O)C=C[C@]4(C)[C@@]3(F)[C@@H](O)C[C@]2(C)[C@@]1(O)C(=O)CO` [DEXAMETHASONE], the survival at 5 mg/kg in the data set on Mus musculus [2], in the data set with Mus musculus [3] and in the data set on Mus musculus [4] was 100% in each case. Take `Cc1cc(NC(=O)NCC(C)C)ccc1/C=C/c1ccc2c(c1)OCO2`: in [1], half-maximal inhibition (IC50) required 3.23 nM. With `COc1cc(/C=C/c2ccc(NC(=O)NCC3CCN(C)CC3)cc2)cc(OC)c1`, the IC50 in data set [1] worked out at 908 nM.
